Measurements reported in patent US8580710B2, “Pesticidal active mixtures comprising aminothiazoline compounds” (BASF SE, priority 2008, dated 2013).
“And” between values parts separate entries of the source, which are not always exact repeats. Identical values can stand only once.

Tests used:
[1] = tested on: boll weevil (Anthonomus grandis); assay: Test B.3: control of boll weevil, insect diet with eggs; format: in vivo; conditions: sprayed on insect diet, 5 days
Description: For evaluating control of boll weevil (Anthonomus grandis) the test unit consisted of 24-well-microtiter plates containing an insect diet and 20-30 A. grandis eggs.
The compounds or mixtures were formulated using a solution containing 75 wt % water and 25 wt % DMSO. Different concentrations of formulated compounds or mixtures were sprayed onto the insect diet at 20 μl, using a custom built micro atomizer, at two replications.
(§1) For experimental mixtures in these tests identical volumes of both mixing partners at the desired concentrations respectively, were mixed together.
After application, microtiter plates were incubated at 23±1° C., 50±5% RH for 5 days. Egg and larval mortality was visually assessed.

[2] = tested on: vetch aphid (Megoura viciae); assay: Test B.1: control of vetch aphid on broad bean leaf disks, contact or systemic; format: in vivo; conditions: sprayed on leaf disks, 5 days
Description: For evaluating control of vetch aphid (Megoura viciae) through contact or systemic means the test unit consisted of 24-well-microtiter plates containing broad bean leaf disks.
The compounds or mixtures were formulated using a solution containing 75 wt % water and 25 wt % DMSO. Different concentrations of formulated compounds or mixtures were sprayed onto the leaf disks at 2.5 μl, using a custom built micro atomizer, at two replications.
as §1
After application, the leaf disks were air-dried and 5-8 adult aphids placed on the leaf disks inside the microtiter plate wells. The aphids were then allowed to suck on the treated leaf disks and incubated at 23±1° C., 50±5% RH (relative humidity) for 5 days. Aphid mortality and fecundity was then visually assessed.

[3] = tested on: Mediterranean fruitfly (Ceratitis capitata); assay: Test B.4: control of Mediterranean fruitfly, insect diet with eggs; format: in vivo; conditions: 5 days
Description: For evaluating control of Mediterranean fruitfly (Ceratitis capitata) the test unit consisted of 96-well-microtiter plates containing an insect diet and 50-80 C. capitata eggs.
The compounds or mixtures were formulated using a solution containing 75 wt % water and 25 wt % DMSO. Different concentrations of formulated compounds or mixtures were sprayed onto the insect diet at 5 μl, using a custom built micro atomizer, at two replications.
as §1
(§2) After application, microtiter plates were incubated at 28±1° C., 80±5% RH for 5 days. Egg and larval mortality was visually assessed.

[4] = tested on: green peach aphid (Myzus persicae); assay: Test B.2: control of green peach aphid through systemic means, artificial diet under membrane; format: in vivo; conditions: 3 days
Text: For evaluating control of green peach aphid (Myzus persicae) through systemic means the test unit consisted of 96-well-microtiter plates containing liquid artificial diet under an artificial membrane.
The compounds or mixtures were formulated using a solution containing 75 wt % water and 25 wt % DMSO. Different concentrations of formulated compounds or mixtures were pipetted into the aphid diet, using a custom built pipetter, at two replications.
as §1
After application, 5-8 adult aphids were placed on the artificial membrane inside the microtiter plate wells. The aphids were then allowed to suck on the treated aphid diet and incubated at 23±1° C., 50±5% RH for 3 days. Aphid mortality and fecundity was then visually assessed. In all cases, a synergistic control effect according to Colby's equation was observed.

[5] = tested on: tobacco budworm (Heliothis virescens); assay: Test B.5: control of tobacco budworm, insect diet with eggs; format: in vivo; conditions: 5 days
Description: For evaluating control of tobacco budworm (Heliothis virescens) the test unit consisted of 96-well-microtiter plates containing an insect diet and 15-25 H. virescens eggs.
The compounds or mixtures were formulated using a solution containing 75 wt % water and 25 wt % DMSO. Different concentrations of formulated compounds or mixtures were sprayed onto the insect diet at 10 μl, using a custom built micro atomizer, at two replications.
as §1, §2

[6] = 4 ppm in aphid diet, mortality and fecundity
[7] = 100 ppm sprayed onto insect diet
[8] = 10 ppm sprayed onto insect diet
[9] = 0.4 ppm sprayed onto insect diet
[10] = 40 ppm sprayed onto insect diet

Molecule `Cc1cc(C)cc(CC(NC2=NCCS2)c2cccc3cccnc23)c1` (stereo not drawn) has a melting point of 95 to 96 °C.

Molecule `Cc1cc(C)cc(CC(NC2=NCCS2)c2cccc3c2C(C)(C)C(=O)N3C)c1` (stereo not drawn) has a melting point of 270 to 272 °C.

`Cc1cc(C)cc(CC(NC2=NCCS2)c2cccc3c2CCC3)c1` (stereo not drawn) showed a melting point of 120 to 124 °C.

For `Cc1cc(C)cc(CC(NC2=NCCS2)c2cccc3c2CCCC3)c1` (stereo not drawn), the melting point was 139 to 141 °C.

With `CC1(C)C(C=C(Cl)Cl)C1C(=O)OC(C#N)c1cccc(Oc2ccccc2)c1` (stereo not drawn) [alphacypermethrin] the “Average Control” value ([1]; 0.04 ppm) was 25%, the “Average Control” value ([2]; 0.08 ppm) was 0% and the “Average Control” value ([2]; 2 ppm) was 50%.

In the case of `Cc1cc(C)cc(CC(N=C2NCCS2)c2cccc3c2OCCO3)c1` (stereo not drawn) [compound C.I-27], the “Average Control” value ([1]; 0.16 ppm) is reported as 0%, the “Average Control” value ([1]; 0.8 ppm) is reported as 0% and the “Average Control” value ([1]; 20 ppm) is reported as 0%. For the same molecule, the “Average Control” value ([1]; 100 ppm) was 0%, the “Average Control [%]” value ([3]; 0.16 ppm sprayed onto insect diet) was 0% and the “Average Control [%]” value ([3]; 20 ppm sprayed onto insect diet) was 0%. The “Average Control [%]” value ([3]; 100 ppm sprayed onto insect diet, egg and larval mortality) was 0%, the “Average Control [%]” value ([4]; 0.16 ppm in aphid diet) was 0% and the “Average Control [%]” value [4, 6] was 0%. The “Average Control [%]” value ([4]; 20 ppm in aphid diet) was 0%, the “Average Control [%]” value [5, 7] was 0% and the “Average Control” value ([2]; 0.16 ppm) was 0%.

With `Cc1cc(C)cc(CC(N=C2NCCS2)c2cccc3c2OCC3)c1` (stereo not drawn) [compound C.I-47] the “Average Control [%]” value ([4]; 0.8 ppm in aphid diet) was 0%, the “Average Control [%]” value [4, 6] was 25% and 50% and the “Average Control [%]” value ([5]; 4 ppm sprayed onto insect diet, egg and larval mortality) was 0%. The “Average Control” value ([2]; 0.16 ppm) was 0% and the “Average Control” value ([2]; 0.8 ppm) was 50%.

In the case of `CNC(=O)c1cc(C#N)cc(C)c1NC(=O)c1cc(Br)nn1-c1ncccc1Cl` [cyazypyr], the “Average Control” value ([1]; 0.4 ppm) is reported as 0%, the “Average Control [%]” value [3, 8] is reported as 50% and the “Average Control [%]” value [5, 9] is reported as 0%. The “Average Control” value ([2]; 0.4 ppm) was 0%.

For `N#Cc1nn(-c2c(Cl)cc(C(F)(F)F)cc2Cl)c(N)c1[S+]([O-])C(F)(F)F` (stereo not drawn) [fipronil], the “Average Control [%]” value [3, 9] was 25% and the “Average Control [%]” value ([4]; 2 ppm in aphid diet) was 50%.

In the case of `N#CCNC(=O)c1cnccc1C(F)(F)F` [flonicamid], the “Average Control” value ([1]; 100 ppm) is reported as 0%, the “Average Control [%]” value [4, 6] is reported as 0% and the “Average Control [%]” value [5, 7] is reported as 0%. For the same molecule, the “Average Control” value ([2]; 0.8 ppm) was 0%.

With `O=[N+]([O-])NC1=NCCN1Cc1ccc(Cl)nc1` [imidacloprid] the “Average Control [%]” value ([4]; 0.4 ppm in aphid diet) was 50%, the “Average Control” value ([2]; 0.016 ppm) was 0% and the “Average Control” value ([2]; 2 ppm) was 50%.

For `CC(C)(C)c1ccc(CSc2cnn(C(C)(C)C)c(=O)c2Cl)cc1` [pyridaben], the “Average Control” value ([1]; 8 ppm) was 50%, the “Average Control [%]” value [3, 10] was 25% and the “Average Control [%]” value [5, 10] was 0%.

In the case of `CNC(=O)c1cc(Cl)cc(C)c1NC(=O)c1cc(Br)nn1-c1ncccc1Cl` [rynaxypyr], the “Average Control” value ([2]; 0.4 ppm) is reported as 0%.

With `CCOC(=O)OC1=C(c2cc(C)ccc2C)C(=O)N[C@]12CC[C@@H](OC)CC2` [spirotetramat] the “Average Control [%]” value [4, 6] was 0%, the “Average Control [%]” value ([4]; 20 ppm in aphid diet) was 0% and the “Average Control” value ([2]; 0.8 ppm) was 0%.

In the case of `CN1COCN(Cc2cnc(Cl)s2)/C1=N\[N+](=O)[O-]` [thiamethoxam], the “Average Control” value ([1]; 2 ppm) is reported as 25% and the “Average Control [%]” value [3, 8] is reported as 25%.

With abamectin the “Average Control” value ([1]; 0.016 ppm) was 25%, the “Average Control [%]” value ([3]; 0.016 ppm sprayed onto insect diet) was 0% and the “Average Control [%]” value ([4]; 0.016 ppm in aphid diet) was 0%. The “Average Control [%]” value ([4]; 0.08 ppm in aphid diet) was 0% and the “Average Control” value ([2]; 0.08 ppm) was 0%.
